From PubChem BioAssay (NCI)
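Compound exposure: 48 hours, 5 concentrations, 96-well plates. At the TGI there is no net growth.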

Experiments:
Assay in all cases: NCI anticancer screen, dose series, 48 h
OVCAR-4 ovarian = system: OVCAR-4 ovarian
RXF 393 renal = system: RXF 393 renal
HS 578T breast = system: HS 578T breast
UACC-62 melanoma = system: UACC-62 melanoma
SF-268 CNS = system: SF-268 CNS
MALME-3M melanoma = system: MALME-3M melanoma
COLO 205 colon = system: COLO 205 colon
MOLT-4 leukemia = system: MOLT-4 leukemia
OVCAR-5 ovarian = system: OVCAR-5 ovarian
SK-OV-3 ovarian = system: SK-OV-3 ovarian

Structure (SMILES)	TGI (OVCAR-4 ovarian) [µM]	TGI (RXF 393 renal) [µM]	TGI (HS 578T breast) [µM]	TGI (UACC-62 melanoma) [µM]	TGI (SF-268 CNS) [µM]	TGI (MALME-3M melanoma) [µM]	TGI (COLO 205 colon) [µM]	TGI (MOLT-4 leukemia) [µM]	TGI (OVCAR-5 ovarian) [µM]	TGI (SK-OV-3 ovarian) [µM]
CC(=O)C(C(C)=O)[C@@H]1OC(C)(C)O[C@@H]1[C@H]1COC(C)(C)O1	> 100	> 100	> 100	> 100	> 100	52.4	> 100	> 100	> 100	
Cc1ccc(-c2cc[n+]3c(n2)oc2ccccc23)cc1	48.8		81.5	97.7	> 100	29.1	68.5	31.3	> 100	> 100
CC1SC2(CCCCC2)N(NC(=O)CSc2nc3ccc(Cl)cc3c(=O)n2-c2ccccc2)C1=O (stereo not drawn)	> 100	38.5		37.5	54.8	60.6	29.2	47.2	58.4	> 100
O=C(c1cccnc1)N1N=C(c2ccccc2)CC1(O)c1cc(F)c(Cl)cc1Cl (stereo not drawn)	> 100	34.9	79.5		> 100	83	31	> 100	> 100	> 100
CCCCCCCCCCCCCCCCCCNC(=S)/N=C/c1c(O)c2ccccc2[nH]c1=O	41	53.5			29.5		32.9	29.7	31.2	49.1
Cc1ccc(N=Nc2c(O)ccc3cc(S(=O)(=O)O)ccc23)cc1	> 100	> 100	> 100	> 100	> 100	> 100	> 100	> 100	> 100	> 100
Cn1c2ccccc2c2cc(N3CCCC3)c3c(c21)C(=O)N(c1ccccc1)C3=O	> 100	91.2	> 100	> 100	> 100	> 100	> 100	> 100	> 100	> 100
S=c1nc(N/N=C/c2cccs2)c2cn[nH]c2[nH]1	> 100	> 100	> 100	> 100	> 100	> 100	> 100	66	49.5	> 100
Cc1nc2ccc(F)cc2c(Cl)c1CCCl	> 100	79.9	> 100	94.6	> 100	87.6	47.2	98.6		
C=C(C)[C@H]1C2=CC(C)=C(O2)[C@@H](O)[C@H](C(=C)C)CCC2=C[C@H]1OC2=O	> 100	> 100	> 100	> 100	> 100	> 100	> 100	> 100	> 100	
CN(C)CCNC(=O)c1cccc2nc3c(C(=O)NCCN(C)C)cccc3nc12	2.24	4.06	7.73	9.6	4.84	3.59	1.87	14.7	13.6	
O=C(N/N=C\c1cccc2ccccc12)Nc1cccc2ccccc12		43.4	> 100		> 100	> 100	> 100		> 100	
Cc1cc2n[n+]3[n-]cc(-c4ccccc4)n3c2cc1[N+](=O)[O-]	> 100	> 100	> 100	> 100			> 100	> 100	> 100	> 100
O=C(c1cccs1)N1CCCN(C(=O)c2cccs2)C1=S		> 100	> 100	> 100	> 100	> 100	> 100	> 100	> 100	> 100
COC(=O)c1ccccc1/C=C1\Cc2ccc3c(c2C1=O)CCCC3	> 100		> 100	> 100	> 100	> 100	> 100	> 100	> 100	> 100
C=CC(=O)N1C/C(=C\c2ccc([N+](=O)[O-])cc2)C(=O)/C(=C/c2ccc([N+](=O)[O-])cc2)C1	1.33	0.359	0.804	0.688	0.338	0.643	0.273		1.18	2.85
O=C(Nc1ccccc1Cl)c1ccc([N+](=O)[O-])cc1		> 100		> 100	> 100	> 100	> 100	> 100		> 100
COc1cc(C2C3=C(CCCC3=O)N(c3ccc(C)cc3)C3=C2C(=O)CCC3)c([N+](=O)[O-])cc1OC	> 100	> 100	> 100	> 100	> 100			> 100	> 100	> 100
O=c1[nH]c2nccn2c2c1SCCN2	> 100	> 100	> 100	> 100	> 100	> 100	> 100	> 100	> 100	
COC(=O)C1CCC(=O)N1C(c1cc(OC)c(OC)c(OC)c1)c1cccc2ccccc12 (stereo not drawn)			> 100	> 100	> 100			> 100	> 100	> 100
CC(C)C(=O)/C=C/S/C=C/C(=O)C(C)C	> 100	19.4	95.7	27.9	> 100	25.6	8.16		22.1	> 100
CCOC(=O)C(=CNC(=S)N=Nc1c(O)[nH]c2ccccc12)C(=O)OCC	> 100	> 100	> 100	> 100	> 100		> 100	> 100	> 100	> 100
